Measured values from patent publication US20230085307A1, “PYRIDAZINONE COMPOUND AND HERBICIDE” (NISSAN CHEMICAL CORPORATION, priority 2019, published 2023).

Legend:
barnyard grass [1] = assay: Test Example 3: herbicidal effect by foliage application, Wagner pot (Table 18, symbol H); type: in vivo, barnyard grass (Echinochloa crus-galli); details: amount of applied herbicide 320 g/ha
In short: (§1)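 Plants were sown in alluvial soil held under 0.1–0.5 cm standing water and grown 14 days in a greenhouse at 25–30 °C. An emulsifiable formulation, water-diluted to the set dose, was then sprayed onto the foliage, and effects were scored three weeks later using previously defined criteria.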

Chinese sprangletop = assay: Test Example 3: herbicidal effect by foliage application, Wagner pot (Table 18, symbol D); type: in vivo, chinese sprangletop (Leptochloa chinensis); details: amount of applied herbicide 320 g/ha
In short: as §1

rice flat sedge = assay: Test Example 3: herbicidal effect by foliage application, Wagner pot (Table 18, symbol E); type: in vivo, rice flat sedge (Cyperus iria); details: amount of applied herbicide 320 g/ha
In short: as §1

southern crabgrass [2] = assay: Test Example 4: herbicidal effect by soil treatment (Table 19, symbol F); type: in vivo, southern crabgrass (Digitaria ciliaris); details: amount of applied herbicide 320 g/ha
In short: (§2)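 Herbicidal effect was rated 3 weeks after treatment, using the scoring criteria of an earlier test. The compound, formulated as an emulsion and diluted in water to a set herbicide amount, had been sprayed uniformly on soil over freshly sown seeds. Growth took place in a greenhouse at 25° C. to 30° C.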

green foxtail [3] = assay: Test Example 4: herbicidal effect by soil treatment (Table 19, symbol G); type: in vivo, green foxtail (Setaria viridis); details: amount of applied herbicide 320 g/ha
In short: as §2

barnyard grass [4] = assay: Test Example 4: herbicidal effect by soil treatment (Table 19, symbol H); type: in vivo, barnyard grass (Echinochloa crus-galli); details: amount of applied herbicide 320 g/ha
In short: as §2

wild oat [5] = assay: Test Example 4: herbicidal effect by soil treatment (Table 19, symbol I); type: in vivo, wild oat (Avena fatua); details: amount of applied herbicide 320 g/ha
In short: as §2

Italian ryegrass [6] = assay: Test Example 4: herbicidal effect by soil treatment (Table 19, symbol K); type: in vivo, Italian ryegrass (Lolium multiflorum); details: amount of applied herbicide 320 g/ha
In short: as §2

windgrass [7] = assay: Test Example 4: herbicidal effect by soil treatment (Table 19, symbol L); type: in vivo, windgrass (Apera spica-venti); details: amount of applied herbicide 320 g/ha
In short: as §2

velvetleaf [8] = assay: Test Example 4: herbicidal effect by soil treatment (Table 19, symbol M); type: in vivo, velvetleaf (Abutilon theophrasti); details: amount of applied herbicide 320 g/ha
In short: as §2

redroot pigweed [9] = assay: Test Example 4: herbicidal effect by soil treatment (Table 19, symbol N); type: in vivo, redroot pigweed (Amaranthus retroflexus); details: amount of applied herbicide 320 g/ha
In short: as §2

lambsquarters [10] = assay: Test Example 4: herbicidal effect by soil treatment (Table 19, symbol O); type: in vivo, lambsquarters (Chenopodium album); details: amount of applied herbicide 320 g/ha
In short: as §2

chickweed [11] = assay: Test Example 4: herbicidal effect by soil treatment (Table 19, symbol P); type: in vivo, common chickweed (Stellaria media); details: amount of applied herbicide 320 g/ha
In short: as §2

persian speedwell [12] = assay: Test Example 4: herbicidal effect by soil treatment (Table 19, symbol R); type: in vivo, Persian speedwell (Veronica persica); details: amount of applied herbicide 320 g/ha
In short: as §2

southern crabgrass [13] = assay: Test Example 5: herbicidal effect by foliage application, plastic box (Table 20, symbol F); type: in vivo, southern crabgrass (Digitaria ciliaris); details: foliage application, 320 g/ha, evaluated three weeks after application
In short: (§3)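 Foliar spray test: emulsion formulation diluted in water to a set application rate, sprayed onto 14-day-old plants raised in diluvial soil at 25° C to 30° C under glass. Both herbicidal effect and crop effect rated visually three weeks later.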

green foxtail [14] = assay: Test Example 5: herbicidal effect by foliage application, plastic box (Table 20, symbol G); type: in vivo, green foxtail (Setaria viridis); details: foliage application, 320 g/ha, evaluated three weeks after application
In short: as §3

barnyard grass [15] = assay: Test Example 5: herbicidal effect by foliage application, plastic box (Table 20, symbol H); type: in vivo, barnyard grass (Echinochloa crus-galli); details: foliage application, 320 g/ha, evaluated three weeks after application
In short: as §3

wild oat [16] = assay: Test Example 5: herbicidal effect by foliage application, plastic box (Table 20, symbol I); type: in vivo, wild oat (Avena fatua); details: foliage application, 320 g/ha, evaluated three weeks after application
In short: as §3

blackgrass = assay: Test Example 5: herbicidal effect by foliage application, plastic box (Table 20, symbol J); type: in vivo, blackgrass (Alopecurus myosuroides); details: foliage application, 320 g/ha, evaluated three weeks after application
In short: as §3

Italian ryegrass [17] = assay: Test Example 5: herbicidal effect by foliage application, plastic box (Table 20, symbol K); type: in vivo, Italian ryegrass (Lolium multiflorum); details: foliage application, 320 g/ha, evaluated three weeks after application
In short: as §3

windgrass [18] = assay: Test Example 5: herbicidal effect by foliage application, plastic box (Table 20, symbol L); type: in vivo, windgrass (Apera spica-venti); details: foliage application, 320 g/ha, evaluated three weeks after application
In short: as §3

velvetleaf [19] = assay: Test Example 5: herbicidal effect by foliage application, plastic box (Table 20, symbol M); type: in vivo, velvetleaf (Abutilon theophrasti); details: foliage application, 320 g/ha, evaluated three weeks after application
In short: as §3

redroot pigweed [20] = assay: Test Example 5: herbicidal effect by foliage application, plastic box (Table 20, symbol N); type: in vivo, redroot pigweed (Amaranthus retroflexus); details: foliage application, 320 g/ha, evaluated three weeks after application
In short: as §3

lambsquarters [21] = assay: Test Example 5: herbicidal effect by foliage application, plastic box (Table 20, symbol O); type: in vivo, lambsquarters (Chenopodium album); details: foliage application, 320 g/ha, evaluated three weeks after application
In short: as §3

chickweed [22] = assay: Test Example 5: herbicidal effect by foliage application, plastic box (Table 20, symbol P); type: in vivo, common chickweed (Stellaria media); details: foliage application, 320 g/ha, evaluated three weeks after application
In short: as §3

persian speedwell [23] = assay: Test Example 5: herbicidal effect by foliage application, plastic box (Table 20, symbol R); type: in vivo, Persian speedwell (Veronica persica); details: foliage application, 320 g/ha, evaluated three weeks after application
In short: as §3

COCCOC(=O)Oc1c(C)nn(C)c(=O)c1-c1c(-c2ccc(F)cc2OC)sc2ccc(Cl)cc12 [2-114]
herbicidal effect on H: barnyard grass (barnyard grass [1]): 4 (Herbicidal rate of 70% or more and less than 90%) | herbicidal effect on D: Chinese sprangletop (Chinese sprangletop): 3 (Herbicidal rate of 40% or more and less than 70%) | herbicidal effect on E: rice flat sedge (rice flat sedge): 5 (Herbicidal rate of 90% or more (almost completely withered)) | F: southern crabgrass, herbicidal effect rating (southern crabgrass [2]): 0 (Herbicidal rate of 5% or less (almost no effect)) | G: green foxtail, herbicidal effect rating (green foxtail [3]): 0 (Herbicidal rate of 5% or less (almost no effect)) | H: barnyard grass, herbicidal effect rating (barnyard grass [4]): 0 (Herbicidal rate of 5% or less (almost no effect)) | I: wild oat, herbicidal effect rating (wild oat [5]): 0 (Herbicidal rate of 5% or less (almost no effect)) | K: Italian ryegrass, herbicidal effect rating (Italian ryegrass [6]): 0 (Herbicidal rate of 5% or less (almost no effect)) | L: windgrass, herbicidal effect rating (windgrass [7]): 0 (Herbicidal rate of 5% or less (almost no effect)) | M: velvetleaf, herbicidal effect rating (velvetleaf [8]): 0 (Herbicidal rate of 5% or less (almost no effect)) | N: redroot pigweed, herbicidal effect rating (redroot pigweed [9]): 5 (Herbicidal rate of 90% or more (almost completely withered)) | O: lambsquarters, herbicidal effect rating (lambsquarters [10]): 3 (Herbicidal rate of 40% or more and less than 70%) | P: chickweed, herbicidal effect rating (chickweed [11]): 4 (Herbicidal rate of 70% or more and less than 90%) | R: persian speedwell, herbicidal effect rating (persian speedwell [12]): 0 (Herbicidal rate of 5% or less (almost no effect)) | herbicidal effect on F: southern crabgrass (southern crabgrass [13]): 0 (Herbicidal rate of 5% or less (almost no effect)) | herbicidal effect on G: green foxtail (green foxtail [14]): 1 (Herbicidal rate of 5% or more and less than 20%) | herbicidal effect on H: barnyard grass (barnyard grass [15]): 3 (Herbicidal rate of 40% or more and less than 70%) | herbicidal effect on I: wild oat (wild oat [16]): 0 (Herbicidal rate of 5% or less (almost no effect)) | herbicidal effect on J: blackgrass (blackgrass): 4 (Herbicidal rate of 70% or more and less than 90%) | herbicidal effect on K: Italian ryegrass (Italian ryegrass [17]): 0 (Herbicidal rate of 5% or less (almost no effect)) | herbicidal effect on L: windgrass (windgrass [18]): 4 (Herbicidal rate of 70% or more and less than 90%) | herbicidal effect on M: velvetleaf (velvetleaf [19]): 3 (Herbicidal rate of 40% or more and less than 70%) | herbicidal effect on N: redroot pigweed (redroot pigweed [20]): 1 (Herbicidal rate of 5% or more and less than 20%) | herbicidal effect on O: lambsquarters (lambsquarters [21]): 3 (Herbicidal rate of 40% or more and less than 70%) | herbicidal effect on P: chickweed (chickweed [22]): 5 (Herbicidal rate of 90% or more (almost completely withered)) | herbicidal effect on R: persian speedwell (persian speedwell [23]): 3 (Herbicidal rate of 40% or more and less than 70%)
